Measurements published in patent US7892350B2, “Sacrificial agents for fly ash concrete” (Boral Material Technologies Inc., priority 2003, dated 2011).
Where two headings read alike, the source gives them in different places.

Assay: Second sacrificial agent testing protocol: paste air measurements with DDBS (0.0125 wt %) and rating; for Overall performance rating (second protocol rating): key: 0: Fail; 1: Poor; 2: Good; 3: Preferred; 4: Most preferred; for SA Rating (0-4): key: 0: Fail; 1: Poor; 2: Good; 3: Preferred; 4: Most preferred
Experimental: The second sacrificial agents evaluation protocol has been designed to assess the relative potential value of candidate sacrificial agents with a maximum of five paste air measurements.
The first two measurements (of entrained air) are carried out with a standard AEA in a portland cement paste and in a FA:cement paste; these two tests provide reference values which can be used for the relative assessment of a series of sacrificial agents. The other three paste air measurements pertain to the properties and effectiveness of the sacrificial agents.
1. Measurement of the air entrained by a standard air-entraining admixture in a cement paste of fixed composition and fluidity; the latter is a reference system which provides ‘reference’ air entrainment values (‘A’ in FIG. 8).
2. […] The difference between ‘B’ and ‘A’ in FIG. 8 is the reduction in air entrainment due to the presence of the fly ash; this is illustrated as ‘C’ in FIG. 8.
In the present SA testing and evaluation protocol, the fly ash selected should remain the same for the entire set of additives tested, in order to provide reliable relative performance ranking. For the present series of test, the Fly Ash selected was the one identified as B1 in Table 1 below; the physico-chemical properties of this fly ash are reported in Table 1.
In testing for the relative performance of the sacrificial agent, the sacrificial agent dosage was chosen in the range 0-0.1 wt %, which corresponds to typical dosage values observed in paste, mortar and concrete tests reported in Tables 2, 3 and 4 and Tables 7 to 34.
3. Measurement of the air entrainment of the SA, by itself, in a cement-only paste at a dosage of 0.1 wt %; this is illustrated as ‘D’ in FIG. 8.
4. Measurement of the air entrained by DDBS in the FA-cement paste comprising 0.05% wt SA, under the same conditions as described in 2 above. The air entrainment value observed in this system, compared to that observed in the absence of the SA, yields the air recovery due to the SA, and is illustrated schematically as ‘E’ in FIG. 8.
5. Same as in 4 above, but with a higher SA concentration at 0.1 wt %; the air entrainment observed, again compared to the value observed in the absence of the SA, yields a second value of air recovery by the SA and is illustrated as ‘F’ in FIG. 8.
For the relative performance rating of the group of products chosen as potential SA and listed in Table 36, the following rating scheme (Tables A and B) was adopted (referring to FIG. 8 and quantities defined therein):
1: Chemical name of compound tested as potential sacrificial agent • Col. 2: Level of air entrainment by the candidate sacrificial agent, at a concentration of 0.1 wt %, in a Portland cement paste ([…]) • Col. […] 5: Sacrificial agent overall rating index (described below) • Col. 6: Hydrophilic-Lipophilic Balance (HLB) values of candidate sacrificial agent (source and significance of HLB data given below) • Col. 7: Logarithm of the Oil(octanol)/water partition coefficient (Kow) of the candidate sacrificial agents (source and significance of data given below).

[1] = Portland cement paste (PCA), […]
[2] = sacrificial agent overall rating index
[3] = B1 FA/cement paste, 0.0125 wt % DDBS, 0.05 wt % SA
[4] = B1 FA/cement paste, 0.0125 wt % DDBS, 0.10 wt % SA
[5] = sum of ratings of air entrainment recovery by 0.05% and 0.1% SA, DDBS 0.0125 wt %, 50:50 B1 fly ash:cement paste

Row | Compound | B1 + 0.0125% DDBS + 0.05% SA (air entrainment) (B1 FA/cement paste, […]) | B1 + 0.0125% DDBS + 0.1% SA (air entrainment) (B1 FA/cement paste, […]) | PCA + 0.1% SA (level of air entrainment by the candidate sacrificial agent) [1] | SA Rating (0-4) [2] | Overall performance rating (second protocol rating) | B1 + 0.0125% DDBS + 0.05% SA (air entrainment) [3] | B1 + 0.0125% DDBS + 0.1% SA (air entrainment) [4] | Overall performance rating (second protocol rating) [5] | also measured
1 | CCOCCOC(C)=O [E.G. mono-ethyl ether acetate] | – | – | – | – | – | – | – | – | B1 + 0.0125% DDBS + 0.05% SA (air entrainment): 4.7; B1 + 0.0125% DDBS + 0.1% SA (air entrainment): 4.7; PCA + 0.1% SA (level of air entrainment by the candidate sacrificial agent): 0.0; SA Rating (0-4): 2
2 | CCO [Ethanol] | – | – | – | – | – | – | – | – | B1 + 0.0125% DDBS + 0.05% SA (air entrainment): 3.1; B1 + 0.0125% DDBS + 0.1% SA (air entrainment): 3.3; PCA + 0.1% SA (level of air entrainment by the candidate sacrificial agent): 1.5; SA Rating (0-4): 0
3 | CCOC(C)=O [Ethyl acetate] | 3.2 | 3.3 | 0.8 | 0 | – | – | – | – | –
4 | CCCC(=O)OCC [Ethylbutyrate] | 5.2 | 4.3 | 0.7 | 3 | 3 | – | – | – | –
5 | CCCCCC(=O)OCC [Ethylcaproate] | – | – | 0.0 | 1 | – | 4.3 | 2.4 | 1 | –
6 | CCOCCO [Ethylene Glycol Ethyl Ether] | 5.0 | 6.8 | 1.2 | 4 | 4 | – | – | – | –
7 | CC(C)COCCO [Ethylene Glycol iso-Butyl Ether] | – | – | 1.7 | 4 | – | 8.8 | 9.5 | 4 | –
8 | CCCCOCCO [Ethylene Glycol n-Butyl Ether] | 8.8 | 9.5 | 2.0 | 4 | 4 | – | – | – | –
9 | CCCOCCO [Ethylene Glycol n-Propyl Ether] | – | – | 1.4 | 4 | – | 7.4 | 7.4 | 4 | –
10 | OCCO [Ethylene Glycol] | – | – | – | – | – | – | – | – | B1 + 0.0125% DDBS + 0.05% SA (air entrainment): 2.4; B1 + 0.0125% DDBS + 0.1% SA (air entrainment): 2.8; PCA + 0.1% SA (level of air entrainment by the candidate sacrificial agent): 0.0; SA Rating (0-4): 0
11 | O=C1OCCO1 [Ethylene carbonate] | 2.5 | 1.9 | 0.0 | 0 | – | – | – | – | –
12 | CCOCCOC(C)=O [Ethylene glycol mono-ethyl ether acetate] | – | – | – | – | 2 | – | – | – | –
13 | CCOC(=O)CC [Ethylpropionate] | – | – | 0.9 | 3 | – | 4.9 | 4.6 | 3 | –
14 | CCCCCC(=O)O [Hexanoic acid] | 5.1 | 4.9 | 2.4 | 4 | 4 | – | – | – | –
15 | CCCCCCO [Hexanol] | 4.2 | 2.7 | 0.0 | 1 | 1 | – | – | – | –
16 | O[C@H]1[C@H](O)[C@@H](O)[C@H](O)[C@@H](O)[C@H]1O [Inositol] | 2.1 | 2.1 | 0.1 | 0 | – | – | – | – | –
17 | CO [Methanol] | 1.9 | 2.2 | 0.6 | 0 | – | – | – | – | –
18 | CC(=O)CC(C)C [Methyl isobutylketone (MIBK)] | – | – | 0.3 | 2 | – | 5.6 | 3.9 | – | –
19 | CC(=O)CC(C)C [Methyl isobutylketone] | – | – | – | – | – | – | – | 2 | –
20 | CCCCCCCCCCCC(=O)OC [Methyllaurate] | – | – | 1.0 | 1 | – | 4.6 | 2.8 | 1 | –
21 | CCCCCCCC(=O)OC [Methyloctanoate] | – | – | 0.0 | 2 | – | 4.8 | 2.2 | 2 | –
22 | CCCCCCCC/C=C\CCCCCCCC(=O)OC [Methyloleate] | – | – | 0.5 | 2 | – | 5.1 | 2.7 | 2 | –
23 | CCCCCCCCCCCCCCCC(=O)OC [Methylpalmitate] | 5.3 | 3.4 | 2.5 | 2 | 2 | – | – | – | –
24 | CCC(=O)OC [Methylpropionate] | 2.7 | 3.5 | 0.2 | 0 | – | – | – | – | –
25 | CCCCOC(=O)c1ccccc1C(=O)OCCCC [N-Butyl phthalate] | – | – | – | 0 | – | 2.2 | 2.1 | – | PCA + 0.1% SA (level of air entrainment by the candidate sacrificial agent) (Portland cement paste (PCA), 0.1 wt % SA, no DDBS): 0.0
26 | CC(C)(C)CO [Neopentanol] | 4.9 | 4.7 | 0.8 | 3 | 3 | – | – | – | –
27 | CCCCCCCC/C=C\CCCCCCCC(=O)O [Oleic acid] | 2.2 | 1.9 | 2.1 | 0 | – | – | – | – | –
28 | O=C(O)Cc1ccccc1 [Phenyl acetic acid] | 2.8 | 4.2 | 0.2 | 1 | 1 | – | – | – | –
29 | OCCc1ccccc1 [Phenyl ethyl alcohol] | 4.5 | 5.5 | 0.7 | 3 | 3 | – | – | – | –
30 | CC(O)COc1ccccc1 (centres unmarked) [Propylene Glycol Phenyl Ether] | – | – | 1.0 | 4 | – | 7.2 | 6.7 | 4 | –
